Assay results: US11850280B1 (priority 2020, dated 2023)

Settings: in vivo

**Q.** For Ivermectin, which “blood plasma levels versus dosage” value is on record?
**A.** dose-response relationship
